Assay results from patent publication US11921116B2, “Enigma and CDH18 as companion diagnostics for CDK4 inhibitors” (Memorial Sloan Kettering Cancer Center, priority 2016, dated 2024).
Entries after “also recorded” stand apart in the source; their conditions may differ.

How the values were obtained:
Format in all cases: cell-based
[1] = test system: MDM2 protein levels in LS8107 cells; assay: MDM2 protein levels in LS8107 cells after CDK4 inhibition
Source text: The short hairpins used are as follows: TRCN0000161061: […] (SEQ ID NO: 4); and TRCN0000166638 (“EN638”): […] (SEQ ID NO: 5).

[2] = test system: non-responder cell line LS8107; assay: Senescence of LS8107 cells after CDK4 inhibition (SA-β-gal positive cells, ATRX foci)
[3] = test system: MDM2 turnover in LS8107 cells; assay: Turnover (degradation) of MDM2 in LS8107 cells after CDK4 inhibition; conditions: LS8107 cells with knockdown of Enigma, addition of PD0332991
Description: To determine if Enigma affects MDM2 protein levels post-translationally, the turnover of MDM2 was analyzed. […] To determine whether HAUSP and Enigma are the important regulators of MDM2 protein levels in response to treatment with a CDK4 inhibitor, concomitant knockdown of HAUSP and Enigma was performed.

[4] = LS8107 cells with Enigma knocked down (shRNA), treated with PD0332991
[5] = non-responder LS8107 cells, PD0332991 alone (no knockdown)

SMILES: CC(=O)c1c(C)c2cnc(Nc3ccc(N4CCNCC4)cn3)nc2n(C2CCCC2)c1=O [PD0332991]
- MDM2 protein levels [1, 4]: reduction in MDM2 protein levels
- MDM2 protein levels [1, 5]: do not reduce their MDM2 protein levels
- senescence [2, 4]: the cells entered senescence
- senescence as determined by the number of SA-β-gal positive cells [2, 5]: do not undergo senescence; also recorded: insufficient to induce senescence
- turnover of MDM2 [3]: increased the turnover of MDM2
